Earlier results in PMC7269146, “Jingzhaotoxin-X, a gating modifier of Kv4.2 and Kv4.3 potassium channels purified from the venom of the Chinese tarantula Chilobrachys jingzhao” (The Journal of Venomous Animals and Toxins Including …, 2020).
Entries after “also recorded” stand apart in the source; their conditions may differ. Like-named read-outs stand apart in the source and are kept apart here.

Columns and labels:
[1] = system: Kv2 channels; settings: ref [40], [41]; cited from earlier work
[2] = system: Nav1.5 channels; settings: cited from earlier work
From the text: (§1) Table 1. Characterization of the main peptides from C. jingzhao venom | column: Main pharmacological activity

[3] = system: Kv2.1 channels; settings: cited from earlier work
From the text: (§2) Table 1. Characterization of the main peptides from C. jingzhao venom | column: Main pharmacological activity || The tarantula Chilobrachys jingzhao is one of the largest venomous spiders in the south of China. Peptide toxins purified from spider venom provide crucial approaches to investigating Kv4 channels. […] Jingzhaotoxin-XI ...

[4] = system: rat cardiac Nav channels; settings: ref [10]; cited from earlier work
From the text: as §1

[5] = system: Nav channels; settings: cited from earlier work
From the text: as §1

[6] = system: Kv4.3 or Kv4.2; settings: ref [14], [19]-[21]; cited from earlier work
From the text: The tarantula Chilobrachys jingzhao is one of the largest venomous spiders in the south of China. Peptide toxins purified from spider venom provide crucial approaches to investigating Kv4 channels. […] Jingzhaotoxin-XI ...

[7] = system: Kv4 channels; settings: cited from earlier work
From the text: as §2

[8] = system: Kv4.1 channels; settings: ref [17]; cited from earlier work
From the text: as §2

[9] = system: Kv channel; settings: ref [18]; cited from earlier work
From the text: as §1

[10] = system: calcium channel; settings: ref [35]; cited from earlier work
From the text: A total of 6 cysteine residues were highly conserved among each spider toxin at specific locations.

Question: Which “suppression of Kv2 channels” value [1] does the source give for “HaTx1: gating-modifying toxin (ECRYLFGGCKTTSDCCKHLGCKFRDKYCAWDFTFS; UniProt P56852 50-84, looked up)” here?
Answer: suppressing Kv2 channels

Question: What does the source list for Jingzhaotoxin-I?
Answer: Main pharmacological activity, Nav1.5 ([2]; ref [7]-[9]): Inhibits Nav1.5 channels inactivation and Kv2.1 channels; Main pharmacological activity, Kv2.1 ([3]; ref [7]-[9]): Inhibits Nav1.5 channels inactivation and Kv2.1 channels

Question: Which results are given for Jingzhaotoxin-II?
Answer: Main pharmacological activity, rat cardiac Nav channels [4]: Inhibits inactivation of both rat cardiac Nav channels and Nav1.5 channels; Main pharmacological activity, Nav1.5 ([2]; ref [10]): Inhibits inactivation of both rat cardiac Nav channels and Nav1.5 channels

Question: For Jingzhaotoxin-III, which “Main pharmacological activity, Nav1.5” value ([2]; ref [11], [12]) is on record?
Answer: Inhibits Nav1.5 and Kv2.1 channels

Question: What about the “Main pharmacological activity, Kv2.1” value ([3]; ref [11], [12]) of the same substance?
Answer: Inhibits Nav1.5 and Kv2.1 channels

Question: For Jingzhaotoxin-IV, which “Main pharmacological activity, Nav channels” value ([5]; ref [13]) is on record?
Answer: Modifies the activation and inactivation of Nav channels

Question: Which results are given for Jingzhaotoxin-V?
Answer: Main pharmacological activity, Nav channels [5]: Inhibits both Nav and Kv4 channels; inhibition of Kv4.3 or Kv4.2 [6]: inhibit either Kv4.3 or Kv4.2, or both of these channels; Main pharmacological activity, Kv4 channels [7]: Inhibits both Nav and Kv4 channels

Question: For Jingzhaotoxin-XI, which “Main pharmacological activity, Nav1.5” value ([2]; ref [15], [16]) is on record?
Answer: Inhibits Nav1.5 inactivation and Kv2.1 channels

Question: What about the “Main pharmacological activity, Kv2.1” value ([3]; ref [15], [16]) of the same substance?
Answer: Inhibits Nav1.5 inactivation and Kv2.1 channels

Question: With Jingzhaotoxin-XII as the substance, how does the “Main pharmacological activity, Kv4.1” value [8] read?
Answer: specific Kv4.1 channel-gating modifier; also recorded: Inhibits Kv4.1 channels

Question: With Jingzhaotoxin-XIII as the substance, how does the “Main pharmacological activity, Kv channel” value [9] read?
Answer: Modifies Kv channel gating

Question: Which “inhibition of Kv4.3 or Kv4.2” value [6] does the source give for “SNX-482 (GVDKAGCRYMFGGCSVNDDCCPRLGCHSLFSYCAWDLTFSD; UniProt P56854 1-41, looked up)” here?
Answer: inhibit either Kv4.3 or Kv4.2, or both of these channels

Question: With ω-grammotoxin SIA as the substance, how does the “activity on calcium channel” value [10] read?
Answer: blocker of calcium channel
